Experimental data published in the NIST ThermoML archive (doi:10.1021/acs.jced.8b00153).
Where “and” joins values, the source holds several entries; their conditions need not be identical. Identical values can stand only once. ± gives the expanded uncertainty stated by the source.

Conditions: for speed of sound / mass density / vapor or sublimation pressure / viscosity: Liquid; for speed of sound: Frequency=3 MHz, Single path-length method; for mass density: Vibrating tube method; for vapor or sublimation pressure: Ebulliometric method (Recirculating still); for surface tension liquid-gas: Drop volume; for viscosity: Capillary tube (Ostwald / Ubbelohde) method

CCc1cccs1 [2-ethylthiophene]
speed of sound (313.15 K, 100 kPa): 1237.7 ± 1.1 m/s
mass density (313.15 K, 100 kPa): 973.34 ± 0.54 kg/m3 and 973.3 ± 0.54 kg/m3
mass density (313.15 K, 2000 kPa): 975 ± 0.54 kg/m3
mass density (313.15 K, 5000 kPa): 977.54 ± 0.54 kg/m3
mass density (313.15 K, 7000 kPa): 979.22 ± 0.54 kg/m3
mass density (313.15 K, 10000 kPa): 981.68 ± 0.54 kg/m3
mass density (313.15 K, 15000 kPa): 985.61 ± 0.55 kg/m3
mass density (313.15 K, 20000 kPa): 989.42 ± 0.55 kg/m3
mass density (313.15 K, 25000 kPa): 993.09 ± 0.54 kg/m3
mass density (313.15 K, 30000 kPa): 996.63 ± 0.54 kg/m3
mass density (313.15 K, 35000 kPa): 1000.06 ± 0.54 kg/m3
mass density (313.15 K, 40000 kPa): 1003.38 ± 0.54 kg/m3
mass density (313.15 K, 45000 kPa): 1006.6 ± 0.55 kg/m3
mass density (313.15 K, 50000 kPa): 1009.71 ± 0.55 kg/m3
mass density (313.15 K, 55000 kPa): 1012.75 ± 0.56 kg/m3
mass density (313.15 K, 60000 kPa): 1015.69 ± 0.56 kg/m3
mass density (313.15 K, 65000 kPa): 1018.54 ± 0.57 kg/m3
vapor or sublimation pressure (315.55 K): 3.01 ± 0.1 kPa
surface tension liquid-gas (315.65 K): 28.16 ± 0.28 mN/m
viscosity (315.65 K, 100 kPa): 0.613 ± 0.007 mPa·s
speed of sound (315.65 K, 100 kPa): 1227.7 ± 1.1 m/s
mass density (315.65 K, 100 kPa): 970.77 ± 0.54 kg/m3
surface tension liquid-gas (318.15 K): 27.84 ± 0.28 mN/m
viscosity (318.15 K, 100 kPa): 0.5981 ± 0.0069 mPa·s
speed of sound (318.15 K, 100 kPa): 1218 ± 1.1 m/s
mass density (318.15 K, 100 kPa): 968.32 ± 0.54 kg/m3 and 968.24 ± 0.54 kg/m3
mass density (318.15 K, 2000 kPa): 970.02 ± 0.54 kg/m3
mass density (318.15 K, 5000 kPa): 972.64 ± 0.54 kg/m3
mass density (318.15 K, 7000 kPa): 974.36 ± 0.54 kg/m3
mass density (318.15 K, 10000 kPa): 976.86 ± 0.55 kg/m3
mass density (318.15 K, 15000 kPa): 980.93 ± 0.55 kg/m3
mass density (318.15 K, 20000 kPa): 984.83 ± 0.55 kg/m3
mass density (318.15 K, 25000 kPa): 988.58 ± 0.55 kg/m3
mass density (318.15 K, 30000 kPa): 992.22 ± 0.55 kg/m3
mass density (318.15 K, 35000 kPa): 995.71 ± 0.54 kg/m3
mass density (318.15 K, 40000 kPa): 999.11 ± 0.54 kg/m3
mass density (318.15 K, 45000 kPa): 1002.39 ± 0.54 kg/m3
mass density (318.15 K, 50000 kPa): 1005.57 ± 0.55 kg/m3
mass density (318.15 K, 55000 kPa): 1008.66 ± 0.55 kg/m3
mass density (318.15 K, 60000 kPa): 1011.66 ± 0.56 kg/m3
mass density (318.15 K, 65000 kPa): 1014.56 ± 0.56 kg/m3
surface tension liquid-gas (320.65 K): 27.54 ± 0.28 mN/m
viscosity (320.65 K, 100 kPa): 0.584 ± 0.0068 mPa·s
speed of sound (320.65 K, 100 kPa): 1208.3 ± 1.1 m/s
mass density (320.65 K, 100 kPa): 965.71 ± 0.54 kg/m3
vapor or sublimation pressure (321.73 K): 4.095 ± 0.1 kPa
surface tension liquid-gas (323.15 K): 27.27 ± 0.28 mN/m
viscosity (323.15 K, 100 kPa): 0.5702 ± 0.0067 mPa·s
speed of sound (323.15 K, 100 kPa): 1198 ± 1.1 m/s
mass density (323.15 K, 100 kPa): 963.21 ± 0.54 kg/m3 and 963.18 ± 0.54 kg/m3
mass density (323.15 K, 2000 kPa): 964.97 ± 0.54 kg/m3
mass density (323.15 K, 5000 kPa): 967.69 ± 0.54 kg/m3
mass density (323.15 K, 7000 kPa): 969.44 ± 0.55 kg/m3
mass density (323.15 K, 10000 kPa): 972.03 ± 0.55 kg/m3
mass density (323.15 K, 15000 kPa): 976.2 ± 0.55 kg/m3
mass density (323.15 K, 20000 kPa): 980.22 ± 0.55 kg/m3
mass density (323.15 K, 25000 kPa): 984.06 ± 0.55 kg/m3
mass density (323.15 K, 30000 kPa): 987.78 ± 0.55 kg/m3
mass density (323.15 K, 35000 kPa): 991.35 ± 0.55 kg/m3
mass density (323.15 K, 40000 kPa): 994.81 ± 0.54 kg/m3
mass density (323.15 K, 45000 kPa): 998.17 ± 0.54 kg/m3
mass density (323.15 K, 50000 kPa): 1001.41 ± 0.54 kg/m3
mass density (323.15 K, 55000 kPa): 1004.56 ± 0.55 kg/m3
mass density (323.15 K, 60000 kPa): 1007.62 ± 0.55 kg/m3
mass density (323.15 K, 65000 kPa): 1010.59 ± 0.56 kg/m3
surface tension liquid-gas (325.65 K): 26.93 ± 0.28 mN/m
viscosity (325.65 K, 100 kPa): 0.5566 ± 0.0067 mPa·s
speed of sound (325.65 K, 100 kPa): 1188.3 ± 1.1 m/s
mass density (325.65 K, 100 kPa): 960.64 ± 0.54 kg/m3
vapor or sublimation pressure (326.03 K): 5.05 ± 0.1 kPa
surface tension liquid-gas (328.15 K): 26.69 ± 0.28 mN/m
viscosity (328.15 K, 100 kPa): 0.5437 ± 0.0066 mPa·s
speed of sound (328.15 K, 100 kPa): 1179.1 ± 1.1 m/s
mass density (328.15 K, 100 kPa): 958.12 ± 0.54 kg/m3 and 958.1 ± 0.54 kg/m3
mass density (328.15 K, 2000 kPa): 959.94 ± 0.54 kg/m3
mass density (328.15 K, 5000 kPa): 962.71 ± 0.54 kg/m3
mass density (328.15 K, 7000 kPa): 964.53 ± 0.55 kg/m3
mass density (328.15 K, 10000 kPa): 967.18 ± 0.55 kg/m3
mass density (328.15 K, 15000 kPa): 971.45 ± 0.55 kg/m3
mass density (328.15 K, 20000 kPa): 975.56 ± 0.55 kg/m3
mass density (328.15 K, 25000 kPa): 979.5 ± 0.55 kg/m3
mass density (328.15 K, 30000 kPa): 983.31 ± 0.55 kg/m3
mass density (328.15 K, 35000 kPa): 986.98 ± 0.55 kg/m3
mass density (328.15 K, 40000 kPa): 990.51 ± 0.55 kg/m3
mass density (328.15 K, 45000 kPa): 993.94 ± 0.55 kg/m3
mass density (328.15 K, 50000 kPa): 997.24 ± 0.54 kg/m3
mass density (328.15 K, 55000 kPa): 1000.47 ± 0.54 kg/m3
mass density (328.15 K, 60000 kPa): 1003.58 ± 0.55 kg/m3
mass density (328.15 K, 65000 kPa): 1006.6 ± 0.55 kg/m3
surface tension liquid-gas (330.65 K): 26.36 ± 0.28 mN/m
viscosity (330.65 K, 100 kPa): 0.5313 ± 0.0066 mPa·s
speed of sound (330.65 K, 100 kPa): 1168.7 ± 1.1 m/s
mass density (330.65 K, 100 kPa): 955.55 ± 0.54 kg/m3
vapor or sublimation pressure (330.78 K): 6.285 ± 0.1 kPa
surface tension liquid-gas (333.15 K): 26.03 ± 0.27 mN/m
viscosity (333.15 K, 100 kPa): 0.519 ± 0.0065 mPa·s
speed of sound (333.15 K, 100 kPa): 1159.1 ± 1.1 m/s
mass density (333.15 K, 100 kPa): 952.99 ± 0.54 kg/m3 and 953 ± 0.54 kg/m3
mass density (333.15 K, 2000 kPa): 954.85 ± 0.54 kg/m3
mass density (333.15 K, 5000 kPa): 957.72 ± 0.55 kg/m3
mass density (333.15 K, 7000 kPa): 959.58 ± 0.55 kg/m3
mass density (333.15 K, 10000 kPa): 962.31 ± 0.55 kg/m3
mass density (333.15 K, 15000 kPa): 966.72 ± 0.55 kg/m3
mass density (333.15 K, 20000 kPa): 970.93 ± 0.55 kg/m3
mass density (333.15 K, 25000 kPa): 974.97 ± 0.55 kg/m3
mass density (333.15 K, 30000 kPa): 978.86 ± 0.55 kg/m3
mass density (333.15 K, 35000 kPa): 982.61 ± 0.55 kg/m3
mass density (333.15 K, 40000 kPa): 986.22 ± 0.55 kg/m3
mass density (333.15 K, 45000 kPa): 989.73 ± 0.55 kg/m3
mass density (333.15 K, 50000 kPa): 993.09 ± 0.55 kg/m3
mass density (333.15 K, 55000 kPa): 996.39 ± 0.54 kg/m3
mass density (333.15 K, 60000 kPa): 999.56 ± 0.54 kg/m3
mass density (333.15 K, 65000 kPa): 1002.62 ± 0.55 kg/m3
surface tension liquid-gas (335.65 K): 25.74 ± 0.27 mN/m
viscosity (335.65 K, 100 kPa): 0.5072 ± 0.0065 mPa·s
speed of sound (335.65 K, 100 kPa): 1149.9 ± 1.1 m/s
mass density (335.65 K, 100 kPa): 950.44 ± 0.54 kg/m3
vapor or sublimation pressure (336.67 K): 8.17 ± 0.1 kPa
surface tension liquid-gas (338.15 K): 25.45 ± 0.27 mN/m
viscosity (338.15 K, 100 kPa): 0.4965 ± 0.0064 mPa·s
speed of sound (338.15 K, 100 kPa): 1140.3 ± 1.1 m/s
mass density (338.15 K, 100 kPa): 947.86 ± 0.54 kg/m3 and 947.89 ± 0.54 kg/m3
mass density (338.15 K, 2000 kPa): 949.78 ± 0.54 kg/m3
mass density (338.15 K, 5000 kPa): 952.72 ± 0.55 kg/m3
mass density (338.15 K, 7000 kPa): 954.65 ± 0.55 kg/m3
mass density (338.15 K, 10000 kPa): 957.46 ± 0.55 kg/m3
mass density (338.15 K, 15000 kPa): 961.97 ± 0.55 kg/m3
mass density (338.15 K, 20000 kPa): 966.32 ± 0.55 kg/m3
mass density (338.15 K, 25000 kPa): 970.44 ± 0.55 kg/m3
mass density (338.15 K, 30000 kPa): 974.41 ± 0.55 kg/m3
mass density (338.15 K, 35000 kPa): 978.26 ± 0.55 kg/m3
mass density (338.15 K, 40000 kPa): 981.96 ± 0.55 kg/m3
mass density (338.15 K, 45000 kPa): 985.53 ± 0.55 kg/m3
mass density (338.15 K, 50000 kPa): 988.98 ± 0.55 kg/m3
mass density (338.15 K, 55000 kPa): 992.31 ± 0.55 kg/m3
mass density (338.15 K, 60000 kPa): 995.56 ± 0.55 kg/m3
mass density (338.15 K, 65000 kPa): 998.71 ± 0.54 kg/m3
vapor or sublimation pressure (342 K): 10.22 ± 0.1 kPa
vapor or sublimation pressure (346.57 K): 12.34 ± 0.1 kPa
vapor or sublimation pressure (351.71 K): 15.14 ± 0.1 kPa
vapor or sublimation pressure (356.68 K): 18.34 ± 0.1 kPa
vapor or sublimation pressure (360.83 K): 21.48 ± 0.1 kPa
vapor or sublimation pressure (365.1 K): 24.99 ± 0.1 kPa
vapor or sublimation pressure (370.4 K): 30.07 ± 0.11 kPa
vapor or sublimation pressure (374.16 K): 34.19 ± 0.11 kPa
vapor or sublimation pressure (379.56 K): 40.88 ± 0.11 kPa
vapor or sublimation pressure (382.77 K): 45.27 ± 0.11 kPa
vapor or sublimation pressure (387.16 K): 51.94 ± 0.12 kPa
vapor or sublimation pressure (390.75 K): 57.93 ± 0.12 kPa
vapor or sublimation pressure (394.79 K): 65.36 ± 0.13 kPa
vapor or sublimation pressure (397.67 K): 71.07 ± 0.13 kPa
vapor or sublimation pressure (401.74 K): 79.78 ± 0.14 kPa
vapor or sublimation pressure (404.64 K): 86.5 ± 0.14 kPa
vapor or sublimation pressure (406.64 K): 91.35 ± 0.14 kPa
vapor or sublimation pressure (409.15 K): 97.8 ± 0.15 kPa
vapor or sublimation pressure (410.46 K): 101.33 ± 0.15 kPa
